Among the data in US10806726B2, “Methods of using indazole-3-carb oxamides and their use as Wnt/B-catenin signaling pathway inhibitors” (Samumed, LLC, priority 2016, dated 2020) are EC50 values, retold here.

Structures are written as SMILES.

For this assay, the system named is TNFα production in THP-1 cells. The experiment in a line: Cytokine Production Assay, LPS-induced TNFα in THP-1 cells. It counts as cell-based. To be noted: Homo sapiens; THP-1, LPS 50 ng/mL 5 hours, 2 independent assays; read-out: average EC50, inhibition of TNFα production. Here is the method: THP-1 cells were cultured in basal media with 1% FBS for 24 hours before the start of the assay. THP-1 cells were plated at 6×10e^4 cells/well and treated with DMSO (vehicle control) or compound 175 at 10 μM highest test concentration and 2 to 3.5-fold serial dilutions up to 8 concentrations (10, 3.5, 1, 0.5, 0.1, 0.035, 0.01, 0.005 μM). For the TNFα assay, 50 ng/mL of LPS was added to the wells after 2 hours to induce cytokine production, and cells were incubated for 5 hours at 37° C. For the IL6 assay, 500 ng/ml of LPS was added after 2 hours and cells were incubated for 22 hours at 37° C. Plates were spun in a centrifuge for 1 minute at 10,000 rpm and supernatants were collected for ELISA. Supernatants were diluted 1:1 for the TNFα assay and 1:4 for the IL6 assay using the assay medium. ELISA was performed using Human TNF-α ELISA MAX™ Deluxe (Catalog #430204, Biolegend, San Diego, Calif.) and Human IL-6 ELISA MAX™ Deluxe (Catalog #430504, Biolegend, San Diego, Calif.) kits. […] Following several washes to remove unbound avidin-HRP, the TMB substrate was added and the plates were read on the Cytation 3 plate reader (Biotek Inc., Winooski, Vt.) at an absorbance of 450 nm with correction at 570 nm. […] Inhibition profile and EC50 was calculated using Prism 5 (GraphPad Software Inc, La Jolla, Calif., USA). […]

In the case of `COc1ccc(NC(=O)c2n[nH]c3ccc(-c4cncc(CN5CCCCC5)c4)cc23)cn1` [compound 175, N-(6-Methoxypyridin-3-yl)-5-(5-(piperidin-1-ylmethyl)pyridin-3-yl)-1H-indazole-3-carboxamide], the EC50 lay within 342 to 547 nM.
